US6492398B1, “Thiazoloindolinone compounds” (SmithKline Beechman Corporation, priority 1999, dated 2002)
Values after ≈ are worked out from the molar mass of the structure shown.

Legend:
[1] = Crystallization determinations, solubility comments (Table IV); assay type: physicochemical; conditions: for Solubility (Comments): evaporation at 25° C.
Protocol: Recrystallization procedures for the respective forms were carried out in each case with the compound being dissolved in the selected solvent and stored at ambient temperature (e.g., 25° C.) until the solvent evaporated. The solid residue was then analyzed by x-ray diffraction.
In the respective anti-solvent determinations, the compound was dissolved in a selected solvent at 25° C., and water or alcohol was added to precipitate a solid. The solid was analyzed by x-ray diffraction.
The compound 4-(((7-oxo-6,7-dihydro-8H-[1,3]thiazolo[5,4-e]indol-8-ylidene)-methyl)amino)-N-(4-pyridinylmethyl) benzenesulfonamide was subjected to crystallization determinations using various solvents and methods of crystallization as described in Table IV below.
In the case of solvent that are relatively non-volatile (DMSO, DMF), complete evaporation was difficult to achieve at […] The presence of solvent was evident as an amorphous hump in the PXRD pattern. Cooling at 5° C. was less successful than the other crystallization approaches as a consequence of the low solubility of 4-(((7 oxo-6,7-dihydro-8H [1,3]thiazolo[5,4-e]indol-8-ylidene)methyl)amino)-N-(4-pyridinylmethyl) benzenesulfonamide under such conditions.

[2] = Solubilities in solvent media (PEG 400, transcutol, methanol); assay type: physicochemical
From the text: The solubilities (in milligrams per milliliter, mg/mL) of the Form A compound in polyethylene glycol 400, transcutol and methanol solvents are as follows:
The solubilities (in milligrams per milliliter, mg/mL) of Form B in polyethylene glycol 400, transcutol and methanol solvents are as follows: […]

## O=C1Nc2ccc3ncsc3c2C1=CNc1ccc(S(=O)(=O)NCc2ccncc2)cc1 [Form B, 4-{[(7-oxo-6,7-dihydro-8H-[1,3]thiazolo[5,4-e]indol-8-ylidene)methyl]amino}-N-(4-pyridinylmethyl)-benzenesulfonamide]
[1]; solvent ethyl acetate
  Solubility (Comments): low
[2]; solvent PEG 400 (polyethylene glycol 400)
  Solubility: 4500 µg/mL (≈ 9.71 mM)
[2]; solvent methanol
  Solubility: 80 µg/mL (≈ 0.173 mM)
[2]; solvent transcutol
  Solubility: 2770 µg/mL (≈ 5.98 mM)

## O=C1Nc2ccc3ncsc3c2C1=CNc1ccc(S(=O)(=O)NCc2ccncc2)cc1 [Form A, 4-{[(7-oxo-6,7-dihydro8H-[1,3]thiazolo[5,4-e]indol-8-ylidene)methyl]amino}-N-(4-pyridinylmethyl)-benzenesulfonamide]
[1]; organic solvent or mixture, solvent ethyl acetate, cooling at 5° C.
  Solubility: < 60 µg/mL
[1]; solvent pyridine
  Solubility (Comments): low
[2]; polyethylene glycol 400, organic solvent or mixture, solvent PEG 400 (polyethylene glycol 400), read-out: Solubility
  Solubility: 4760 µg/mL (≈ 10.3 mM)
[2]; solvent methanol
  Solubility: 300 µg/mL (≈ 0.647 mM)
[2]; transcutol, organic solvent or mixture, solvent transcutol, read-out: Solubility
  Solubility: 3150 µg/mL (≈ 6.8 mM)
